Source: patent US20230372348A1, “LIPID FORMULATIONS OF TRIAZOLOQUINAZOLINONE COMPOUNDS” (Gabather AB, priority 2020, published 2023)

Experiments:
[1] = test system: benzodiazepine site of the GABAA receptor complex; conditions: cited from earlier work
[2] = Single ascending dose (SAD) study, pharmacokinetics in healthy male subjects; assay type: in vivo, human
Method: Lipid formulations containing PHOSAL® 53 MCT delivered higher exposure in rat and dog when compared to other formulation (e.g., nanosuspension formulation and PEG formulations). […] Formulation 1H containing 70% PHOSAL® 53 MCT and 30% Labrasol® ALF was selected for manufacturing of soft gelatin capsules for clinical trials with a drug formulation fill weight of 500 mg and a total capsule weight is 696 mg. Two dose strength (0.1 mg/subject and 2 mg/subject) and placebo were produced according to GMP for clinical testing.
The clinical development programme in healthy volunteers started with a double-blind, randomised, placebo controlled single ascending dose (SAD) study in males. Seven dose cohorts received increasing oral doses of Compound (1a) or placebo, dose range 0.05-2 mg. Each cohort consisted of 5-6 subjects receiving Compound (1a) and 2 subjects receiving placebo, with the primary objective to evaluate safety and tolerability, the secondary objective being evaluation of pharmacokinetics (PK).
A summary of PK results from the SAD study are shown below in Table 8.

[3] = Single dose pharmacokinetic evaluation of formulations in male Sprague Dawley rats; assay type: in vivo; conditions: plasma, iv, rat
Method: Single dose pharmacokinetic evaluations of formulations F12-F22 were carried out using male Sprague Dawley rats using conditions as described in Table 1.
Animal ID's were labelled by pen marks on tail and body weight was recorded for calculation of test item volume before administration. Blood was collected capillary from vena saphena from the rats in EDTA coated collection tubes and centrifuged for five minutes at 2000G. Plasma was transferred to pre-labelled Eppendorf tubes and immediately stored in −20° C. The pharmacokinetic analysis was performed using PK Solutions 2.0™, Noncompartmental Pharmacokinetic Data Analysis software.
Cmax (nM) is the maximum concentration. AUC 0-24 (nM*h) is the area under the curve over 24 hours. Tmax (h) is the maximum time in hours. F % is bioavailability. Frel % is the relative bioavailability.

SMILES: Cc1ccc(-n2nc3c4cc(Cc5ccccc5)ccc4[nH]c(=O)n3c2=O)cc1 [Compound (1a), 9-benzyl-2-(4-methylphenyl)-2,6-dihydro[1,2,4]triazolo[4,3-c]quinazoline-3,5-dione]
- selectivity [1]: selective for the GABAA receptor complex
- inhibition of 3H-Flumazenil binding ([1]; rat membrane preparations): very potent inhibitor
- potency in displacing 3H-Flumazenil relative to diazepam ([1]; rat membrane preparations, more potent than diazepam): 10 times
- dose proportionality of Cmax ([2]; dose range 0.05 mg-2 mg): dose proportional
- dose proportionality of exposure ([2]; dose range 0.05 to 2 mg, oral soft gelatin capsules, fasting healthy male volunteers): close to dose proportional
- bioavailability ([3]; intravenously 1 mg/kg (reference), read-out: F % (bioavailability)): 100%
- AUC(0-t) ([3]; intravenously 1 mg/kg, read-out: AUC 0-24): 1.18 µM·h
